Measurements reported in patent publication US20030139438A1, “Diagnosis of the parkinsonian condition” (priority 2001, published 2003).

Tests used:
[1] = system: PPE-A mRNA; experiment: Preproenkephalin-A in situ hybridization in striatum; format: in vivo, Macaca fascicularis
Protocol: (§1) Five monkeys were killed at the beginning of the study and were considered as day 0 (D0) controls. The remaining 20 were treated with daily (9:00 am) injections of MPTP hydrochloride (0.2 mg/kg, i.v.; Sigma, St Louis, Mo.) in saline according to a previously described protocol (Bezard et al., 1997 Neuroscience 81 p 399-404; Bezard et al., 1997 Brain Res. 766 p 107-112; and Bezard et al., 1999 Eur. J. Neurosci. 11 p 2167-2170). This protocol derives a reproducible MPTP cumulative dosing regime that leads to the first appearance of parkinsonian clinical signs after 15±1 injections (3.0±0.02 mg/kg). Five presymptomatic monkeys were killed on day 6 (i.e., after 6 injections; D6 Group), five presymptomatic monkeys at day 12 (i.e. after 12 injections; D12 group), five at day 15 after appearance of overt symptoms (i.e. after 15 injections; D15 group), and the remaining five fully parkinsonian monkeys at day 25 (i.e. after 15 injections; D25). All animals were killed by sodium pentobarbital overdose (150 mg/kg, i.v.) and the brains were removed quickly after death. Each brain was bisected along the midline and the two hemispheres were immediately frozen by immersion in isopentane (−45° C.) and then stored at −80° C. Tissue was sectioned at 20 μm in a cryostat at −17° C., thaw-mounted onto gelatin-subbed slides, dried on a slide warmer and stored at −80° C.
In situ hybridization histochemistry was performed as previously described by Henry et al. (1999 Exp. Neurol. 155 p204-220) using a ^35S-radiolabeled oligonucleotide probe (Gibco BRL) corresponding to amino acids 130-145 of the human sequence of PPE-A. One microliter of the oligonucleotide was tailed by the isotope of 37° C. in a mixture containing 10 μl sterile water, 12.5 μl reaction buffer (sodium cocodylate 120 mM and dithiothreitol 100 mM), and 2 μl terminal deoxynucleotide transferase (all reagents DuPont/NEN) with 7 μl of [^35S] ATP (82.5 μCi, NEN). […] One microliter of this solution was counted by a liquid scintillation counter (Tricarb, 1500 Packard) to asses the efficiency of labeling. […]
Densitomeric analysis of autoradiographs was performed using an image analysis system (Image Pro Plus, v3.0.01, Media Cybernetics L.P., Atlanta, Ga.) as previously described (Henry et al., supra). The optical density of the autoradiogram was assessed for the striatum at three rostrocaudal levels in accordance with the functional organisation of the striatum: a rostral level, including the caudate, putamen, and nucleus accumbens; a midlevel, including the caudate, putamen, and GPe; and a caudal level including the body of the caudate, the putamen, and both the GPe and GPi. […] Four sections per animal, per striatal level were analyzed by an examiner blind with regard to experimental condition. […]

[2] = system: striatal DA content; experiment: Neurochemical analysis of striatal DA by HPLC with electrochemical detection; format: in vivo, Macaca fascicularis
Protocol: as §1
The extent of striatal DA denervation was assessed by measuring levels of DA, 3,4-dihydroxyphenylacetic acid (DOPAC) and homovanillic acid (HVA) in both the caudate nucleus and the putamen using high-pressure liquid chromatography with electrochemical detection as previously described (Bezard et al., 1997 Neuroscience 81 p399-404) with minor modifications. […] Pellets were retained for quantification of protein content by the Bradford assay (Bezard et al., 1997 Neuroscience 81 p 399-404). […] Concentrations of DA and metabolites were calculated using a computing integrator (Gold Nouveau V 1.6, Beckman). Mean and SEM values were calculated for both putamen and caudate nucleus for each group.

[3] = system: cynomolgus monkeys; experiment: Bradykinesia test (time to pick up three pieces of fruit) after chronic MPTP; format: in vivo, Macaca fascicularis; conditions: maximum 60 s
Protocol: (§2) Experiments were conducted on twenty five female cynomolgus monkeys (Macaca fascicularis, Shared Animal Health, Beijing, PR of China; mean age=3.1. ±0.3 years; mean weight=2.8 ±0.2 kg). Animals were housed in individual primate cages under controlled conditions of humidity (50±5%0, temperature (24 ±1° C.), and light (12 h light/dark cycles), food and water were available ad libitum and their care supervised by veterinarians skilled in the healthcare and maintenance of nonhuman primates. Experiments were carried out in accordance with European Economic Community (86/6091/EEC) guidelines for care of laboratory animals. The effect of nontreatment on both motor behaviour and PPE-A expression had been previously compared with that of the administration of saline in order to rule out any possible interference. Accordingly MPTP-treated animals were compared with “nontreated” controls in this study. This procedure has been chosen to minimise the number of animals used. In addition, brain tissues acquired for the present experiments are being used for further experiments.
as §1, with “Tissue was sectioned at 20 μm in a cryostat at −17° C., thaw-mounted onto gelatin-subbed slides, dried on a slide warmer and stored at −80° C.” left out
(§3) Animal behavior was assessed daily (2 p.m) on a parkinsonian monkey rating scale (Bezard et al., 1997 Neuroscience 81 p399-404; and Bezard et al., 1997 Neuroreport 8 p435-438) using videotape recordings of monkeys in their cages in addition to clinical neurological evaluation. During each session two examiners evaluated the animals' levels of motor performance, coaxing them to perform various tasks by offering appetizing fruit. […]

[4] = system: cynomolgus monkeys; experiment: Parkinsonian monkey rating scale after chronic MPTP administration; format: in vivo, Macaca fascicularis; conditions: scale 0-25
Protocol: as §2
as §1, with “Tissue was sectioned at 20 μm in a cryostat at −17° C., thaw-mounted onto gelatin-subbed slides, dried on a slide warmer and stored at −80° C.” left out
as §3

[5] = system: dopamine levels; experiment: Reserpine-induced dopamine depletion in rats; format: in vivo; conditions: 3 mg/kg s.c., after 48 hours
Protocol: (§4) Reserpine (3 mg/kg, s.c, in 3% glacial acetic acid) was administered to rats to deplete dopamine levels.
(§5) In this situation the animals represent a model of pre-symptomatic subjects, i.e. they have a dopamine depletion but no symptoms.

[6] = system: actions of metenkephalin; experiment: Naloxone challenge in reserpine-treated rat model of pre-symptomatic subjects; format: in vivo, rats
Protocol: as §4, §5
The parkinsonan symptoms were reversible and were not observed one hour after the naloxone injection where the animals returned to the presymptomatic state.

[7] = system: opioid receptor; experiment: Naltrexone challenge in reserpine-treated rats, locomotor activity (Benwick monitors); format: in vivo, Sprague-Dawley rats
Protocol: Reserpine was administered to rats to deplete dopamine levels. […] In this situation the animals represent a model of pre-symptomatic patients, i.e. they have a dopamine depletion but no overt symptoms.
Male Sprague-Dawley rats were split into two groups A and B. Rats in both groups received a subcutaneous administration of reserpine (3 mg/kg). The rats were allowed to recover for 48 hours post reserpine treatment at which point they are considered to represent a model of pre-symptomatic Parkinson's disease.
After the 48 hours Group A were treated with vehicle (water) and group B were treated with naltrexone (10 mg/kg) and placed in locomotor monitoring apparatus (see below).
The locomotion of the rats in Groups A and B following either vehicle or naltrexone treatment was measured over the 5 minute period immediately after drug administration using Benwick locomotor monitors. These locomotion monitors consist of a visually-shielded open-field arena, the perimeter of which is surrounded by a series of infra-red beams arranged at 5 cm intervals. PC-based software (Amlogger) assesses the number of beams broken. The number of beams broken as part of a locomotor movement (activity counts) was measured.

For `CN1CC=C(c2ccccc2)CC1` [MPTP, 1-methyl-4-phenyl-1,2,3,6-tetrahydropyridine], the “PPE-A mRNA levels in striatum compared to D0” value ([1]; D6 group) was “no significant difference”, the “PPE-A mRNA levels in striatum compared to D0” value ([1]; D12 group, asymptomatic) was “sharp increase” and the “PPE-A mRNA levels in striatum compared to D0” value ([1]; D15 group, mild parkinsonian symptoms) was “same distribution of increased levels”. The “PPE-A mRNA levels in striatum compared to D0” value ([1]; D25 group, fully parkinsonian) was “pronounced increases”, the “reduction of DA level in the putamen compared to D0” value ([2]; D6 group) was 42.7% and the “depletion of DA in the putamen compared to D0” value ([2]; D12 group, asymptomatic) was 56.3%. The “decrease of DA level in the putamen compared to D0” value ([2]; D25 group) was 97.9%, the “mean duration of the bradykinesia test” value ([3]; D6 group, D0 controls 3.0±0.4 s) was 2.4 ± 0.3 s and the “mean duration of the bradykinesia test” value ([3]; D12 group, D0 controls 3.0±0.4 s) was 2.6 ± 0.5 s. The “mean duration of the bradykinesia test” value ([3]; D15 group) was 19.9 ± 9.1 s, the “mean duration of the bradykinesia test” value ([3]; D25 group, could not perform the test) was 60 s and the parkinsonian score ([4]; D6 group, 6 daily injections 0.2 mg/kg i.v.) was 0. For the same compound, the parkinsonian score ([4]; D12 group, 12 daily injections 0.2 mg/kg i.v.) was 0, the “parkinsonian score, median (range)” value ([4]; D15 group, 15 injections 0.2 mg/kg i.v.) was 11 (range 10-14) and the “parkinsonian score, median (range)” value ([4]; D25 group, killed at day 25 after 15 injections) was 17 (range 15-19).
In the case of `COC(=O)[C@H]1[C@H]2C[C@@H]3c4[nH]c5cc(OC)ccc5c4CCN3C[C@H]2C[C@@H](OC(=O)c2cc(OC)c(OC)c(OC)c2)[C@@H]1OC` [Reserpine], the dopamine level [5] is reported as “not less than 20 % of normal levels”.
`C=CCN1CC[C@]23c4c5ccc(O)c4O[C@H]2C(=O)CC[C@@]3(O)[C@H]1C5` [naloxone] was tested, and the parkinsonian symptoms ([6]; 10 mg/kg i.p., rats 48 hours after reserpine 3 mg/kg s.c.) was “parkinsonian symptoms became manifest”, the “parkinsonian symptoms one hour after the injection” value ([6]; 10 mg/kg i.p., reserpine-treated rats) was “not observed” and the “parkinsonian symptoms in control animals not treated with reserpine” value ([6]; naloxone without reserpine) was “No parkinsonian symtoms were seen”.
`O=C1CC[C@@]2(O)[C@H]3Cc4ccc(O)c5c4[C@@]2(CCN3CC2CC2)[C@H]1O5` [naltrexone] was tested, and the parkinsonian symptoms ([7]; 10 mg/kg i.p., rats 48 hours after reserpine) was “parkinsonian symptoms appeared” and the “activity counts versus vehicle treated group” value ([7]; 10 mg/kg, 5 minute period after administration, rats 48 hours after reserpine 3 mg/kg s.c., P<0.01) was “significantly less”.
